Results: ChEMBL document CHEMBL4359905, “Discovery, structural insight, and bioactivities of BY27 as a selective inhibitor of the second bromodomains of BET proteins” (Eur J Med Chem, 2019)

Tests used:
MV4-11 [1] = assay: Antiproliferative activity against human MV4-11 cells assessed as cell growth inhibition after 4 days by CCK8 assay; type: functional, cell-based; settings: MV4-11, 96 h
[2] = target: T1, Bromodomain-containing protein 4 (Homo sapiens, UniProt O60885); assay: Binding affinity to human recombinant BRD4 BD1 (44 to 168 residues) by fluorescence polarization assay
[3] = target: T1, Bromodomain-containing protein 4; assay: Binding affinity to human recombinant BRD4 BD2 (333 to 460 residues) by fluorescence polarization assay
MM1.S = assay: Antiproliferative activity against human MM1S cells assessed as cell growth inhibition after 4 days by CCK8 assay; type: functional, cell-based; settings: 96 h
MV4-11 [4] = assay: Downregulation of cMyc mRNA expression in human MV4-11 cells after 24 hrs by qRT-PCR analysis; type: functional, cell-based
MV4-11 [5] = assay: Upregulation of p21 mRNA expression in human MV4-11 cells after 24 hrs by qRT-PCR analysis; type: functional, cell-based
HepG2 [6] = assay: Downregulation of ARID5B in human HepG2 cells after 4 hrs by qRT-PCR analysis; type: functional, cell-based
HepG2 [7] = assay: Downregulation of G6PC in human HepG2 cells after 4 hrs by qRT-PCR analysis; type: functional, cell-based
HepG2 [8] = assay: Downregulation of […] in human HepG2 cells after 4 hrs by qRT-PCR analysis; type: functional, cell-based
MV4-11 [9] = assay: Decrease in c-Myc protein expression in human MV4-11 cells incubated for 24 hrs by western blot analysis; type: functional, cell-based
MV4-11 [10] = assay: Increase in p21 protein expression in human MV4-11 cells incubated for 24 hrs by western blot analysis; type: functional, cell-based
[11] = target: T2, Bromodomain-containing protein 3 (Homo sapiens, UniProt Q15059); assay: Binding affinity to human recombinant BRD3 BD1 (24 to 144 residues) by fluorescence polarization assay
Target sequence in this assay (Q15059 whole entry, the tested form may be a part): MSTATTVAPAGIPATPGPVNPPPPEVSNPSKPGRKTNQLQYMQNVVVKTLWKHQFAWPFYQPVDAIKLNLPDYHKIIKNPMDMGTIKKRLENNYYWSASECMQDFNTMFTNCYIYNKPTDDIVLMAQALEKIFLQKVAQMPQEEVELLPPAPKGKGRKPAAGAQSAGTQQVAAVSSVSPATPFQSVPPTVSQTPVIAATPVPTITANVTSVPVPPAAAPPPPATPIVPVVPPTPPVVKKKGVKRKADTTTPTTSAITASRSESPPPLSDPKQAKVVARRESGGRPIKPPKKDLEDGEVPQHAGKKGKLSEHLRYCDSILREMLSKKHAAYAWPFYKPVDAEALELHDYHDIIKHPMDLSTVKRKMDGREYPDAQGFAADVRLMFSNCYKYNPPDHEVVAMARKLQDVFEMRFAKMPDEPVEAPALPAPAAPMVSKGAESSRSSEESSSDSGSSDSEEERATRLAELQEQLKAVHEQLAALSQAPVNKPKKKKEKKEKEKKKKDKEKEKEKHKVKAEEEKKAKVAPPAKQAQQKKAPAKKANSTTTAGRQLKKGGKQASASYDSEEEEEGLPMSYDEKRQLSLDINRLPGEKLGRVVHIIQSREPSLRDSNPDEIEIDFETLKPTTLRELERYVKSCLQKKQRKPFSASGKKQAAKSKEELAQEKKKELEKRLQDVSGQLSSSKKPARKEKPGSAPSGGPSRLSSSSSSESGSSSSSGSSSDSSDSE

[12] = target: T2, Bromodomain-containing protein 3; assay: Binding affinity to human recombinant BRD3 BD2 (306 to 417 residues) by fluorescence polarization assay
Target sequence in this assay (Q15059 whole entry, the tested form may be a part): as above

[13] = target: T3, Bromodomain-containing protein 2 (Homo sapiens, UniProt P25440); assay: Binding affinity to human recombinant BRD2 BD1 (72 to 205 residues) by fluorescence polarization assay
T3 sequence (P25440 whole entry, the tested form may be a part): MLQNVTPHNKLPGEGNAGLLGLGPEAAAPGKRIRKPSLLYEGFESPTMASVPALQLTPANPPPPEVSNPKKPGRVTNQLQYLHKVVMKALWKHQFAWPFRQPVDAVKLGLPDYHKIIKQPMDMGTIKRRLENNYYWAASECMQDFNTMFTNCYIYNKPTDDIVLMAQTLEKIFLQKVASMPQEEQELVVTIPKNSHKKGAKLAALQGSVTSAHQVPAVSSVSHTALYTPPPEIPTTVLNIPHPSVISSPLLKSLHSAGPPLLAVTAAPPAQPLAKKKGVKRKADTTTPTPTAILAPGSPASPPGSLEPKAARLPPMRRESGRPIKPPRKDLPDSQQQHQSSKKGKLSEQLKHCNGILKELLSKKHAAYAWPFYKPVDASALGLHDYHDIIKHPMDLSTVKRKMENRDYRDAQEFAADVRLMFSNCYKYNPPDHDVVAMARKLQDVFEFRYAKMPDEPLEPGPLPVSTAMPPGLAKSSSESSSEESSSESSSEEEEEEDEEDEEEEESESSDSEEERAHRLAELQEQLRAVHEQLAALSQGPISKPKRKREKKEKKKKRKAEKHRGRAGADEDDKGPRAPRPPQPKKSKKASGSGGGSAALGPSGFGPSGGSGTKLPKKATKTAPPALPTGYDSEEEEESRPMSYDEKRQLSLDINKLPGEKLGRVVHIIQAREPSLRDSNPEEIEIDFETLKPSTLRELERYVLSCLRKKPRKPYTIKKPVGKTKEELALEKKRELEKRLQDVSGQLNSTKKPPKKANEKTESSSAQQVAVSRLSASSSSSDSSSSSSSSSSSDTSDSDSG

[14] = target: T3, Bromodomain-containing protein 2; assay: Binding affinity to human recombinant BRD2 BD2 (349 to 460 residues) by fluorescence polarization assay
[15] = target: T2, Bromodomain-containing protein 3; assay: Selectivity index, ratio of Ki for human recombinant BRD3 BD1 (24 to 144 residues) to Ki for human recombinant BRD3 BD2 (306 to 417 residues)
Target sequence in this assay (Q15059 2-726 limits assumed): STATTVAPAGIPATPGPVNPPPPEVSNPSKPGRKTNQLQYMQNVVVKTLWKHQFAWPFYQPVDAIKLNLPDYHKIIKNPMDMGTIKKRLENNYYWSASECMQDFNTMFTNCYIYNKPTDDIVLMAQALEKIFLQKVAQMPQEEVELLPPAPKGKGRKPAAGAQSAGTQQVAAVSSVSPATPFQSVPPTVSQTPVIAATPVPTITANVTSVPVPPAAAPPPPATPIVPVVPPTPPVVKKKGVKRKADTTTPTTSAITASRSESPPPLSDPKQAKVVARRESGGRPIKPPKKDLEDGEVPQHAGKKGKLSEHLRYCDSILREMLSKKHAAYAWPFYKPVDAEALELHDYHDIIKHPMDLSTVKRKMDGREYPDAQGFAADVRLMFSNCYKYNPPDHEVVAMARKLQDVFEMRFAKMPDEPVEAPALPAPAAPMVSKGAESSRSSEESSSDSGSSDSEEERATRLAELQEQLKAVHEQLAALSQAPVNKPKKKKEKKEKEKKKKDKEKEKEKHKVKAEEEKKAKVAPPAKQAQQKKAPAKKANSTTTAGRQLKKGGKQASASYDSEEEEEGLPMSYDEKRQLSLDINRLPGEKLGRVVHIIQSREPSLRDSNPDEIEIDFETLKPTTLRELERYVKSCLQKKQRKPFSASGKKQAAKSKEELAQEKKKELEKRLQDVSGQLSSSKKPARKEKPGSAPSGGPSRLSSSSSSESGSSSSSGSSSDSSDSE

Compound | IC50 (MV4-11 [1]) | Ki [2] | Ki [3] | IC50 (MM1.S) | further results
Cc1nnc2n1-c1ccc(-c3cnn(C)c3)cc1C(Nc1cccc3ccccc13)CC2 (centres undefined) | 107 nM | 294 nM | 21.3 nM | 533 nM | –
Cc1nnc2n1-c1ccc(-c3ccc(CCN4CCN(C)CC4)cc3)cc1C(Nc1ccc(Cl)cc1)CC2 (centres undefined) | 165 nM | 372 nM | 54.4 nM | 258 nM | –
Cc1nnc2n1-c1ccc(-c3cnn(C)c3)cc1C(Nc1ccc3ccccc3c1)CC2 (centres undefined) | 116 nM | 419 nM | 24.7 nM | 535 nM | –
Cc1sc2c(c1C)C(c1ccc(Cl)cc1)=N[C@@H](CC(=O)Nc1ccc(O)cc1)c1nnc(C)n1-2 [BIRABRESIB] | 17.6 nM | – | – | 22.7 nM | inhibition (MV4-11 [4]): Dose-dependent effect; Activity (MV4-11 [5]): Dose-dependent effect; inhibition (HepG2 [6]): Dose-dependent effect; inhibition (HepG2 [7]): Dose-dependent effect; inhibition (HepG2 [8]): Dose-dependent effect; inhibition (MV4-11 [9]): Dose-dependent effect; Activity (MV4-11 [10]): Dose-dependent effect
Cc1nnc2n1-c1ccc(C3=CCN(C)CC3)cc1C(Nc1ccc(Cl)cc1)CC2 (centres undefined) | 1780 nM | 4320 nM | 413 nM | 3240 nM | –
Cc1nnc2n1-c1ccc(Br)cc1C(Nc1ccc(Cl)cc1)CC2 (racemic) | 2040 nM | > 2000 nM | 736 nM | 5310 nM | –
Cc1nnc2n1-c1ccc(-c3ccc(N(C)C)cc3)cc1C(Nc1ccc(Cl)cc1)CC2 (centres undefined) | 1950 nM | 466 nM | 65.4 nM | 1020 nM | –
Cc1nnc2n1-c1ccc(NC(=O)C3CCN(C)CC3)cc1C(Nc1ccc(Cl)cc1)CC2 (centres undefined) | 2410 nM | 1490 nM | 102 nM | 8510 nM | –
Cc1nnc2n1-c1ccc(-c3cnoc3)cc1C(Nc1ccc(Cl)cc1)CC2 (centres undefined) | 6560 nM | 232 nM | 83.7 nM | 7720 nM | –
Cc1nnc2n1-c1ccc(-c3ccc(N)nc3)cc1C(Nc1cccc(CO)c1)CC2 (centres undefined) | – | 1960 nM | 128 nM | – | –
Cc1nnc2n1-c1ccc(-c3cncs3)cc1C(Nc1ccc(Cl)cc1)CC2 (centres undefined) | 374 nM | 266 nM | 34.8 nM | 345 nM | –
Cc1nnc2n1-c1ccc(-c3ccc(CN4CCN(C)CC4)cc3)cc1C(Nc1ccc(Cl)cc1)CC2 (centres undefined) | 112 nM | 271 nM | 18 nM | 241 nM | –
COc1ccc(NC2CCc3nnc(C)n3-c3ccc(-c4ccc(N)nc4)cc32)cc1 (centres undefined) | – | 1910 nM | 174 nM | – | –
Cc1nnc2n1-c1ccc(-c3cnn(C)c3)cc1C(Nc1ccc(Cl)cc1)CC2 (centres undefined) | 84.4 nM | 144 nM | 14.8 nM | 64.4 nM | Ki [11]: 188 nM; Ki [12]: 11.1 nM; Ki [13]: 275 nM; Ki [14]: 9.1 nM; Ratio Ki [15]: 17
Cc1nnc2n1-c1ccc(C3=CCNCC3)cc1C(Nc1ccc(Cl)cc1)CC2 (centres undefined) | 2290 nM | 4450 nM | 284 nM | 5700 nM | –
Cc1nnc2n1-c1ccc(-c3ccc4c(c3)CCC(=O)N4)cc1C(Nc1ccc(Cl)cc1)CC2 (centres undefined) | 143 nM | 310 nM | 68.8 nM | 132 nM | –
Cc1nnc2n1-c1ccc(-c3ccnc(N)c3)cc1C(Nc1ccc(Cl)cc1)CC2 (centres undefined) | 500 nM | 535 nM | 74.7 nM | 345 nM | –
Cc1nnc2n1-c1ccc(-c3ccc(N)nc3)cc1C(Nc1ccc(C(F)(F)F)cc1)CC2 (centres undefined) | – | 576 nM | 147 nM | – | –

Compound | IC50 (MV4-11 [1]) | Ki [2] | Ki [3] | IC50 (MM1.S) | further results
Cc1nnc2n1-c1ccc(-c3ccc(N)nc3)cc1C(Nc1ccc(Cl)cc1)CC2 (centres undefined) | – | 636 nM | 68.4 nM | – | –
Cc1nnc2n1-c1ccc(-c3cnn(C)c3)cc1[C@@H](Nc1ccc(Cl)cc1)CC2 | 7730 nM | 5000 nM | 945 nM | 4240 nM | –
Cc1nnc2n1-c1ccc(-c3cnc(N)nc3)cc1C(Nc1ccc(Cl)cc1)CC2 (centres undefined) | 401 nM | 726 nM | 66.2 nM | 1020 nM | –
Cc1nnc2n1-c1ccc(-c3ccc(N)nc3)cc1C(Nc1ccc(F)cc1)CC2 (centres undefined) | – | 725 nM | 92.6 nM | – | –
Cc1nnc2n1-c1ccc(-c3ccc(C(=O)O)cc3)cc1C(Nc1ccc(Cl)cc1)CC2 (centres undefined) | 3260 nM | 247 nM | 47.3 nM | 7060 nM | –
COc1ccc2c(c1)C(Nc1ccc(Cl)cc1)CCc1nnc(C)n1-2 (centres undefined) | 1160 nM | 1300 nM | 249 nM | 1400 nM | –
Cc1nnc2n1-c1ccc(-c3ccc(CCCN4CCN(C)CC4)cc3)cc1C(Nc1ccc(Cl)cc1)CC2 (centres undefined) | 127 nM | 81.7 nM | 12.3 nM | 110 nM | –
Cc1nnc2n1-c1ccc(-c3cn[nH]c3)cc1C(Nc1ccc(Cl)cc1)CC2 (centres undefined) | 99.1 nM | 126 nM | 15.9 nM | 259 nM | Ki [11]: 114 nM; Ki [12]: 13.9 nM; Ki [13]: 270 nM; Ki [14]: 19.1 nM; Ratio Ki [15]: 8
Cc1nnc2n1-c1ccc(-c3ccc(N4CCN(C)CC4)cc3)cc1C(Nc1ccc(Cl)cc1)CC2 (centres undefined) | 70.8 nM | 115 nM | 17.4 nM | 210 nM | –
Cc1nnc2n1-c1ccc(-c3ccc(N)nc3)cc1C(Nc1nn(C)c3ccccc13)CC2 (centres undefined) | – | 10600 nM | 617 nM | – | –
Cc1nnc2n1-c1ccc(N)cc1C(Nc1ccc(Cl)cc1)CC2 (centres undefined) | 4330 nM | 11100 nM | 1230 nM | 7950 nM | –
Cc1nnc2n1-c1ccc(NS(C)(=O)=O)cc1C(Nc1ccc(Cl)cc1)CC2 (centres undefined) | 4820 nM | 3350 nM | 918 nM | 9060 nM | –
Cc1nnc2n1-c1ccc(-c3ccc(N)nc3)cc1C(Nc1cc(C3CC3)nn1C)CC2 (centres undefined) | – | 1960 nM | 376 nM | – | –
Cc1nnc2n1-c1ccc(-c3ccc(N)nc3)cc1C(Nc1cccc3ccccc13)CC2 (centres undefined) | – | 712 nM | 41.5 nM | – | –
CCn1cc(-c2ccc3c(c2)C(Nc2ccc(Cl)cc2)CCc2nnc(C)n2-3)cn1 (centres undefined) | 94.6 nM | 77.2 nM | 14.8 nM | 63.5 nM | Ki [11]: 99.7 nM; Ki [12]: 8.2 nM; Ki [13]: 193 nM; Ki [14]: 8.9 nM; Ratio Ki [15]: 12
Cc1nnc2n1-c1ccc(-c3ccc(N)nc3)cc1C(Nc1ccc(C#N)cc1)CC2 (centres undefined) | – | 508 nM | 80.6 nM | – | –
Cc1ccc(NC2CCc3nnc(C)n3-c3ccc(-c4ccc(N)nc4)cc32)cc1 (centres undefined) | – | 540 nM | 109 nM | – | –
CC(=O)Nc1ccc2c(c1)C(Nc1ccc(Cl)cc1)CCc1nnc(C)n1-2 (centres undefined) | 1030 nM | 457 nM | 50.3 nM | 1440 nM | –
